Laboratory results from patent publication US6603046B1, “Bis-aromatic a,β-unsaturated ketones” (Lica Pharmaceuticals A/S, priority 1992, dated 2003).
≈ marks a conversion by molar mass, not a printed value. Where two headings read alike, the source gives them in different places.

Tests used:
[1] = Rate of the reaction between N-acetyl-L-cysteine and chalcones, HPLC; type: physicochemical; conditions: methanol-water-potassium phosphate buffer pH 7.5, 30° C.; first order
Text: The decline of the chalcone concentration was followed by HPLC. The following experimental setups were used: 1. […] 2. […] This system was used i the case of 4′-methoxychalcone. The rate of decline of the chalcone concentration was followed by HPLC. The rate constant was estimated using Grafit and assuming that the reaction followed first order kinetic; i.e.: [c]=[c0]exp(−kt) where [c] is the concentration of the chalcone in question at time t, [c0] is the concentration of the chalcone in question at time zero, k is the rate constant, and t the time.

[2] = 4-Hydroxychalcone toxicity study in mice, i.p. (Example 22); type: in vivo, BALB/c female mice; conditions: for No. died after 24 h: n 4
Procedure: Mice. BALB/c female mice, 8 weeks old, 20 g body weight.
Drug. 4Hydroxychalcone prepared as in Example 2.
LD50. 80 mg of 4hydroxychalcone was dissolved in 0.2 ml of 99% (v/v) ethanol, and then mixed with 240 mg of Brij 35 dissolved in 19.8 ml of buffer pH 73 (NaH2PO4.H2O 26 mg, Na2HPO4.2H2O 520 mg and distilled water 100 ml), and then sterile filtered through a 0.22 μm Millipore filter. Drug was injected intraperitoneally into mice once.

[3] = tested on: chloroquine-sensitive P. falciparum 3D7A strain; assay: In vitro growth of P. falciparum 3D7A, 3H-hypoxanthine uptake (Example 15); type: cell-based, Plasmodium falciparum
P. falciparum = P. falciparum growth in vitro (Table 14.1, strain not stated); type: cell-based; conditions: Plasmodium falciparum, read-out: inhibition of malaria parasites (middle figure) (converted)
Procedure: The P. falciparum experimental setup was as described in Example 15.
Testing of the effect of drugs and serum on the in vitro growth of the parasites. The experiments in which compounds were tested for their ability to inhibit parasite growth were performed by a modification of the method originally described by Jensen et al. (1982). Fifty μl of parasitized erythrocytes (parasitemia approximately 1%) in a concentration of 5×10^8/ml and 50 μl of RPMI medium containing different concentrations of the test compound was added to each well of a 96 well flat-bottomed microtiter plate (Nunc). The cultures were then incubated for 48 hours, 24 hours before termination of the culture adding 20 μl of 3-H-hypoxanthine (40 uCi/ml) (New England Nuclear, Boston, Mass., USA) was added to each well. The cultures were then harvested onto glass fiber filters using a Skatron cell harvester (Skatron, Lierbyen, Norway), and the incorporation of 3-H-hypoxanthine into the DNA of dividing parasites was determined by liquid scintillation spectrometry.

L. major promastigotes = L. major promastigotes from 4-days cultures, 3H-thymidine uptake (Examples 5, 14); type: cell-based, Leishmania major; conditions: Leishmania major, Table 14.1, read-out: percentage inhibition of promastigotes (upper figure)
Outline: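 Promastigotes harvested on day 4 of culture were exposed to compound, then pulsed with 100 μC 3H-thymidine for a further 18 h. Cells were collected on filter paper, washed, and incorporated radioactivity counted by scintillation.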

human lymphocytes = assay: Lymphocyte Proliferation Assay, 3H-thymidine incorporation (Example 13); conditions: Homo sapiens, Lymphocyte, read-out: inhibition of lymphocytes (lower figure)
[4] = tested on: chloroquine resistant P. falciparum DD2 strain; assay: In vitro growth of P. falciparum DD2, 3H-hypoxanthine uptake (Example 15); type: cell-based, Plasmodium falciparum; conditions: Plasmodium falciparum, DD2, read-out: concentration in which parasite growth was retarded by 50%
P. yoelii strain YM = P. yoelii strain YM infection in mice, parasitemia and mortality (Example 16); type: in vivo, BALB/c mice
[5] = D + 10, i.p. 0.5 mg/kg/day once daily D0-D + 3
[6] = D + 12, i.p. 0.5 mg/kg/day once daily D0-D + 3
[7] = D + 14, i.p. 0.5 mg/kg/day once daily D0-D + 3
[8] = D + 16, i.p. 0.5 mg/kg/day once daily D0-D + 3
[9] = D + 16, i.p. 2.5 mg/kg/day once daily D0-D + 3
[10] = D + 18, i.p. 0.5 mg/kg/day once daily D0-D + 3
[11] = D + 18, i.p. 2.5 mg/kg/day once daily D0-D + 3
[12] = D + 20, i.p. 0.5 mg/kg/day once daily D0-D + 3
[13] = D + 20, i.p. 2.5 mg/kg/day once daily D0-D + 3
[14] = D + 20, i.p. 5 mg/kg/day once daily D0-D + 3

For `COc1ccc(C(=O)/C=C/c2ccccc2)cc1` [drawing 103, 4′-methoxychalcone], the “Estimated rate constant k” value [1] was 0.016 min⁻¹.
With `O=C(/C=C/c1ccccc1)c1ccccc1` [drawing 102, chalcone, reference compound] the “Estimated rate constant k” value [1] was 0.034 min⁻¹.
With `COc1ccc(/C=C/C(=O)c2ccccc2)c(OC)c1` [drawing 104] the “Estimated rate constant k” value [1] was 0.0033 min⁻¹.
For `C=CCOc1ccc(C(=O)CCc2ccc(OC)cc2OC)cc1`, the “Estimated rate constant k” value [1] was 0.0011 min⁻¹.
For `C=CC(C)(OC)c1cc(CCC(=O)c2ccc(O)cc2)c(OC)cc1O` (stereo not drawn), the “Estimated rate constant k” value [1] was 0.00058 min⁻¹.
In the case of `O=C(/C=C/c1ccc(O)cc1)c1ccccc1` [4-Hydroxychalcone, 4-hydroxychalcone], the “No. died after 24 h” value ([2]; 50 mg/kg i.p.) is reported as 0, the “No. died after 24 h” value ([2]; 100 mg/kg i.p.) is reported as 0 and the “No. died after 24 h” value ([2]; 200 mg/kg i.p.) is reported as 1. For the same compound, the “No. died after 24 h” value ([2]; 400 mg/kg i.p.) was 2, the “LD50, intraperitoneally” value ([2]; mice) was 400 mg per kg and the IC50 ([3]; Plasmodium falciparum; read-out: concentration in which growth was retarded by 50%) was 1 to 5 µg/mL (≈ 4.46 to 22.3 µM). For the same compound, the “Percentage inhibition of 3H-hypoxanthine uptake (mean ± SEM)” value (shortened to “Percentage inhibition … (mean ± SEM)”) ([3]; title: percentage inhibition of 3H-hypoxanthine uptake; 0.5 μg/ml) was 20.5 ± 10.9%, the “Percentage inhibition … (mean ± SEM)” value ([3]; title: percentage inhibition of 3H-hypoxanthine uptake; 1 μg/ml) was 29.2 ± 7.7% and the “Percentage inhibition … (mean ± SEM)” value ([3]; title: percentage inhibition of 3H-hypoxanthine uptake; 5 μg/ml) was 61.3 ± 10.6%. For the same compound, the “Percentage inhibition … (mean ± SEM)” value ([3]; title: percentage inhibition of 3H-hypoxanthine uptake; 10 μg/ml) was 88.2 ± 5.3%, the inhibition at 0.5 µg/mL (P. falciparum; 0.5 μg/ml) was 20.5% and the inhibition at 1 µg/mL (P. falciparum; 1 μg/ml) was 29.2%. It also gave an inhibition at 5 µg/mL (P. falciparum; 5 μg/ml) of 61.3%, an inhibition at 10 µg/mL (P. falciparum; 10 μg/ml) of 88.2% and an inhibition at 0.5 µg/mL (L. major promastigotes; 0.5 μg/ml) of 7%. The inhibition at 1 µg/mL (L. major promastigotes; 1 μg/ml) was 49.1 ± 16.8%, the inhibition at 5 µg/mL (L. major promastigotes; 5 μg/ml) was 80.1 ± 12.6% and the inhibition at 10 µg/mL (L. major promastigotes; 10 μg/ml) was 91 ± 5.4%. For the same compound, the inhibition at 1 µg/mL (human lymphocytes) was 2.24%, the inhibition at 5 µg/mL (human lymphocytes) was 7.73% and the inhibition at 10 µg/mL (human lymphocytes) was 14.2%.
For `CCN(CC)CCCC(C)Nc1ccnc2cc(Cl)ccc12` (stereo not drawn) [Chloroquine, chloroquine phosphate, reference compound], the IC50 [4] was 0.075 to 0.15 µg/mL, the IC50 ([3]; Plasmodium falciparum, read-out: concentration in which growth was retarded by 50%) was 38 to 75 µg/mL and the “Percentage inhibition … (mean ± SEM)” value ([3]; title: percentage inhibition of 3H-hypoxanthine uptake; 38 ng/ml) was 34.0 ± 6.1%. For the same compound, the “Percentage inhibition … (mean ± SEM)” value ([3]; title: percentage inhibition of 3H-hypoxanthine uptake; 75 ng/ml) was 80.2 ± 3.7%, the “Percentage inhibition … (mean ± SEM)” value ([3]; title: percentage inhibition of 3H-hypoxanthine uptake; 150 ng/ml) was 97.1 ± 1.0% and the “Percentage inhibition … (mean ± SEM)” value ([3]; title: percentage inhibition of 3H-hypoxanthine uptake; 300 ng/ml) was 98.8 ± 0.3%. The “% parasitemia (mean ± SEM)” value (P. yoelii strain YM; D + 4, i.p. 0.5 mg/kg/day once daily D0-D + 3) was 0.9 ± 0.5%, the “% parasitemia (mean ± SEM)” value (P. yoelii strain YM; D + 4, i.p. 2.5 mg/kg/day once daily D0-D + 3) was 0.2 ± 0.2% and the “% parasitemia (mean ± SEM)” value (P. yoelii strain YM; D + 4, i.p. 5 mg/kg/day once daily D0-D + 3) was 0.02 ± 0.04%. The “% parasitemia (mean ± SEM)” value (P. yoelii strain YM; D + 6, i.p. 0.5 mg/kg/day once daily D0-D + 3) was 24 ± 8.6%, the “% parasitemia (mean ± SEM)” value (P. yoelii strain YM; D + 6, i.p. 2.5 mg/kg/day once daily D0-D + 3) was 2.4 ± 2.2% and the “% parasitemia (mean ± SEM)” value (P. yoelii strain YM; D + 6, i.p. 5 mg/kg/day once daily D0-D + 3) was 0%. For the same compound, the “% parasitemia (mean ± SEM)” value (P. yoelii strain YM; D + 8, i.p. 0.5 mg/kg/day once daily D0-D + 3) was 57.4 ± 4.2%, the “% parasitemia (mean ± SEM)” value (P. yoelii strain YM; D + 8, i.p. 2.5 mg/kg/day once daily D0-D + 3) was 28.3 ± 16.2% and the “% parasitemia (mean ± SEM)” value (P. yoelii strain YM; D + 8, i.p. 5 mg/kg/day once daily D0-D + 3) was 0.1 ± 0.17%. For the same compound, the “% parasitemia (mean ± SEM)” value (P. yoelii strain YM; [5]) was 66.3 ± 6.6%, the “mortality (no. of dead mice/total no. of tested mice)” value (P. yoelii strain YM; [5]) was “(2/5)” and the “% parasitemia (mean ± SEM)” value (P. yoelii strain YM; D + 10, i.p. 2.5 mg/kg/day once daily D0-D + 3) was 33.7 ± 19.8%. For the same compound, the “% parasitemia (mean ± SEM)” value (P. yoelii strain YM; D + 10, i.p. 5 mg/kg/day once daily D0-D + 3) was 2.8 ± 2.7%, the “% parasitemia (mean ± SEM)” value (P. yoelii strain YM; [6]) was 49.7 ± 17.6% and the “mortality (no. of dead mice/total no. of tested mice)” value (P. yoelii strain YM; [6]) was “(2/5)”. The “% parasitemia (mean ± SEM)” value (P. yoelii strain YM; D + 12, i.p. 2.5 mg/kg/day once daily D0-D + 3) was 40.2 ± 21%, the “% parasitemia (mean ± SEM)” value (P. yoelii strain YM; D + 12, i.p. 5 mg/kg/day once daily D0-D + 3) was 13 ± 4.4% and the “% parasitemia (mean ± SEM)” value (P. yoelii strain YM; [7]) was 35.3 ± 4.7%. The “mortality (no. of dead mice/total no. of tested mice)” value (P. yoelii strain YM; [7]) was “(2/5)”, the “% parasitemia (mean ± SEM)” value (P. yoelii strain YM; D + 14, i.p. 2.5 mg/kg/day once daily D0-D + 3) was 37.4 ± 19.8% and the “% parasitemia (mean ± SEM)” value (P. yoelii strain YM; D + 14, i.p. 5 mg/kg/day once daily D0-D + 3) was 22.4 ± 6.1%. The “% parasitemia (mean ± SEM)” value (P. yoelii strain YM; [8]) was 18.5 ± 19.1%, the “mortality (no. of dead mice/total no. of tested mice)” value (P. yoelii strain YM; [8]) was “(3/5)” and the “% parasitemia (mean ± SEM)” value (P. yoelii strain YM; [9]) was 4.7 ± 4.6%. The “mortality (no. of dead mice/total no. of tested mice)” value (P. yoelii strain YM; [9]) was “(2/5)”, the “% parasitemia (mean ± SEM)” value (P. yoelii strain YM; D + 16, i.p. 5 mg/kg/day once daily D0-D + 3) was 62.2 ± 24.5% and the “% parasitemia (mean ± SEM)” value (P. yoelii strain YM; [10]) was 9%. For the same compound, the “mortality (no. of dead mice/total no. of tested mice)” value (P. yoelii strain YM; [10]) was 4/5, the “% parasitemia (mean ± SEM)” value (P. yoelii strain YM; [11]) was 0% and the “mortality (no. of dead mice/total no. of tested mice)” value (P. yoelii strain YM; [11]) was 2/5. The “% parasitemia (mean ± SEM)” value (P. yoelii strain YM; D + 18, i.p. 5 mg/kg/day once daily D0-D + 3) was 75.2 ± 3.3%, the “% parasitemia (mean ± SEM)” value (P. yoelii strain YM; [12]) was 0% and the “mortality (no. of dead mice/total no. of tested mice)” value (P. yoelii strain YM; [12]) was 4/5. The “% parasitemia (mean ± SEM)” value (P. yoelii strain YM; [13]) was 0%, the “mortality (no. of dead mice/total no. of tested mice)” value (P. yoelii strain YM; [13]) was 2/5 and the “% parasitemia (mean ± SEM)” value (P. yoelii strain YM; [14]) was 50 ± 16.4%. For the same compound, the “mortality (no. of dead mice/total no. of tested mice)” value (P. yoelii strain YM; [14]) was “(1/5)”.
